In patent publication US20110020362A1, “Adrenergic stimulation mediates hypersensitivity by inducing nerve growth factor expression” (priority 2009, published 2011):
“Also recorded” adds a separate entry of the source.

How the values were obtained:
trkA = test: Western blot of trkA expression in dorsal root ganglia after intrathecal oligonucleotide; type: in vivo, rat
Method: (§1) A catheter (ReCathco) was inserted through the occipital membrane onto the top of the spinal cord. The end of the catheter rested at about L1. After measurement of baseline response to colorectal distension, the catheter was primed with the appropriate solution and connected to subcutaneously implanted osmotic pump (Durect Corporation, Cupertino, Calif.) filled with appropriate solution. The pump delivered a constant infusion of 0.93 μL/hour for 10.6 days. K252a, a non-specific antagonist of tyrosine kinase receptors (trk) including the high affinity trkA receptors (11), was dissolved in DMSO and administered in sterile saline containing 10% DMSO at a concentration of 0.067 mg/mL. Each rat received an initial bolus infusion of 0.67 μg followed by 1.5 μg/day from the osmotic pump. Previously validated anti-sense and missense oligonucleotides were used (12), TrkA antisense: […] (SEQ ID NO: 1) and mismatch: […] (SEQ ID NO: 2). Oligos were HPLC purified and purchased from Invitrogen. Rats received an initial bolus dose of 10 nmole in 10 uL. The catheter was attached to the pump, which delivered oligo at a rate of 0.5 nmole/hour. Stress protocol started 24-hours after attachment of the pump. Nerve growth factor neutralizing antibody (16 μg/kg i.p. in 0.5) was purchased from R&D systems (Minneapolis, Minn.) and reconstituted in phosphate buffered saline (PBS). Control rats received PBS containing an equal concentration of goat non-immune serum.

[1] = test system: rats subjected to heterotypic chronic stress; test: Viscero-motor response (VMR) to graded colorectal distension after nine-day heterotypic chronic stress; type: in vivo, rat; details: for heterotypic chronic stress-induced increase in viscero-motor response to colorectal distension: entire nine-day HeCS, post-HeCS vs baseline
Method: Two electrodes were implanted under general 2% isofluorane anesthesia in the external oblique abdominal muscle and exteriorized in the subscapular region. Rats were allowed one week to recover from surgery. Under 2% isofluoruthane anesthesia, a 5 cm long balloon constructed from a surgical glove finger and attached to tygon tubing was inserted 7 cm into the descending colon and rectum. Rats were placed in small Lucite cubicles (20×8×8 cm) and allowed to adapt for 30 minutes. colorectal distension was performed by rapidly inflating the balloon to constant pressures: 20, 30, 40, 50, 60 & 80 mm Hg, for 20 seconds followed by 2-minute rest. Electromygraphic (EMG) activity from the external oblique muscle was recorded on Biopac equipment (Biopac Systmes, Inc., Santa Barbara, Calif.). The EMG signal was amplified, filtered at 300 Hz and digitized. The area under the curve (AUC) for the EMG signal during each 20 seconds of distention was calculated using Acknowledge software (Biopac Systmes, Inc). The net value for each distension period was calculated by subtracting the baseline value derived from the average AUC for 20 seconds before and 20 seconds after the distention period.
as §1

[2] = test system: TL colon dorsal root ganglia neurons; test: Patch-clamp electrophysiology of DiI-labeled colon-specific TL dorsal root ganglia neurons from treated rats; type: in vivo, rat
Method: The lipid soluble fluorescent dye 1,1′dioleyl-3,3,3′,3′-tetramethylindocarbocyanine methanesulfonate (DiI-I), 25 mg in 0.5 mL methanol, was injected in 2 μL volumes at eight to ten sites in distal colon wall starting at the pelvic girdle and moving toward the cecum. TL dorsal root ganglia neurons were isolated from dorsal root ganglia T13, L1 and L2 were dissected out and put in an ice-cold, oxygenated dissecting solution, containing (in mM): 130 NaCI, 5 KCI, 2 KH2PO4, 1.5 CaCl2, 6 MgSO4, glucose, and 10 HEPES, pH 7.2 (osmolarity, 305 mOsm), as described (10). Connective tissue free ganglia were transferred to a 10 ml dissecting solution containing collagenase D (1.8 mg/mL, Roche) and trypsin (1.0 mg/mL; Sigma, St. Louis, Mo.), and incubated for 1.5 hours at 34.5° C. DRGs are then taken from the enzyme solution, washed, and put in 2 mL of the dissecting solution containing DNase (0.5 mg/mL; Sigma). Cells were subsequently dissociated by trituration with fire-polished glass pipettes and placed on acid-cleaned glass cover slips. Dorsal root ganglia neurons containing the retrograde label were identified as bright red neurons using fluorescent microscopy with a rhodamine filter (excitation 546, barrier filter at 580) and Hoffman contrast optics. For current clamp experiment, cells were superfused (1.5 mL/min) at room temperature with control external solution containing (in mM): 130 NaCI, 5 KCI, 2 KH2PO4, 2.5 CaCl2, 1 MgCl2, 10 HEPES, and 10 glucose, pH adjusted to 7.4 with NaOH (295-300 mOsm). Recording pipettes pulled from borosilicate glass tubing had resistance of 1-4 MΩ. For perforated patch recording, pipette tip was initially filled with amphotericin-free pipette solution, containing (in mM): 100 KmeSO3, 40 KCI, and 10 HEPES, pH 7.25 adjusted with KOH (osmolarity, 290 mOsm). The pipette was then backfilled with same pipette solution containing amphotericin B (300 μg/ml). Whole cell currents and voltage were recorded with Dagan 3911 patch clamp amplifier; and data were acquired and analyzed by pCLAMP 9.2 (Axon Instruments). The currents were filtered at 2-5 kHz and sampled at 50 or 100 μsec per point.
as §1

nerve growth factor = test: Nerve growth factor expression in distal colon tissue strips incubated in vitro with norepinephrine; type: cell-based, rat
Method: The distal colon, about 6 cm long was opened along the mesentery and dissected free of mucosa/submucosa and submucosal plexus. Tissues were either snap frozen in liquid nitrogen or washed in Hanks balanced salt solution and incubated in DME+10% fetal calf serum+penicillin/streptomycin containing norepinephrine for 24-hours. Tissue was homogenized in PBS+protease inhibitor cocktail purchased from Sigma and centrifuged at 13,000 g for 10 minutes. Nerve growth factor protein was measured by ELISA from R&D Systems (Minneapolis, Minn.).

[3] = test system: mucosal afferent mechanoreceptors; details: IBS patients; cited from earlier work
[4] = test system: TL colon dorsal root ganglia neurons; test: Electrophysiology of TL colon dorsal root ganglia neurons incubated in vitro with nerve growth factor; type: cell-based, rat; details: 24 hours in vitro, high (250 ng/mL) vs low (2.5 ng/mL)
Method: The lipid soluble fluorescent dye 1,1′dioleyl-3,3,3′,3′-tetramethylindocarbocyanine methanesulfonate (DiI-I), 25 mg in 0.5 mL methanol, was injected in 2 μL volumes at eight to ten sites in distal colon wall starting at the pelvic girdle and moving toward the cecum. TL dorsal root ganglia neurons were isolated from dorsal root ganglia T13, L1 and L2 were dissected out and put in an ice-cold, oxygenated dissecting solution, containing (in mM): 130 NaCI, 5 KCI, 2 KH2PO4, 1.5 CaCl2, 6 MgSO4, glucose, and 10 HEPES, pH 7.2 (osmolarity, 305 mOsm), as described (10). Connective tissue free ganglia were transferred to a 10 ml dissecting solution containing collagenase D (1.8 mg/mL, Roche) and trypsin (1.0 mg/mL; Sigma, St. Louis, Mo.), and incubated for 1.5 hours at 34.5° C. DRGs are then taken from the enzyme solution, washed, and put in 2 mL of the dissecting solution containing DNase (0.5 mg/mL; Sigma). Cells were subsequently dissociated by trituration with fire-polished glass pipettes and placed on acid-cleaned glass cover slips. […] Whole cell currents and voltage were recorded with Dagan 3911 patch clamp amplifier; and data were acquired and analyzed by pCLAMP 9.2 (Axon Instruments). […]

[5] = exogenous administration; cited from earlier work
[6] = intrathecal oligonucleotide, bolus 10 nmole then 0.5 nmole/hour
[7] = HeCS rats, intrathecal application
[8] = in vitro incubation for 24 hours
[9] = HeCS rats, 200 μg/kg intraluminal in distal colon one day before HeCS
[10] = sham stressed rats, 200 μg/kg intraluminal in distal colon

## trkA AS oligonucleotide: TrkA antisense: CATCAACGAAGTCACCAGACCG (SEQ ID NO: 1), previously validated, HPLC purified, from Invitrogen (listed as DNA, chemistry not given here)
trkA; intrathecal, catheter tip at about L1
  expression of trkA in TL dorsal root ganglia, relative to rats treated with MM oligonucleotide: about 50%
trkA; several segments caudal to the catheter tip, vs MM oligonucleotide
  trkA levels in LS DRG: No significant difference
trkA; several segments rostral to the catheter tip, vs MM oligonucleotide
  trkA levels in thoracic dorsal root ganglion: No significant difference
[1]; [6]
  heterotypic chronic stress-induced increase in viscero-motor response to colorectal distension: no significant difference
[1]; intrathecal oligonucleotide, bolus 10 nmole then 0.5 nmole/hour, listed as anti-sense ODN
  heterotypic chronic stress-induced increase in viscero-motor response to colorectal distension: suppressed

## MM oligonucleotide: mismatch control oligonucleotide: CAACATCGAAGTGACGAGACCG (SEQ ID NO: 2) (listed as DNA, chemistry not given here)
[1]; [6]
  heterotypic chronic stress-induced increase in viscero-motor response to colorectal distension: significant increase

## COC(=O)[C@@]1(O)C[C@H]2O[C@]1(C)n1c3ccccc3c3c4c(c5c6ccccc6n2c5c31)C(=O)NC4 [k252a, K252a]
[2]; [7]
  HeCS-induced decrease in rheobase: significantly attenuated
  HeCS-induced depolarization of resting membrane potential: significantly attenuated
  HeCS-induced increase in the number of action potentials at 2× rheobase: significantly attenuated
[2]; HeCS rats, intrathecal treatment
  HeCS-induced increase in excitability of TL colon dorsal root ganglia neurons: blocked
[1]; intrathecal osmotic pump, bolus 0.67 μg then 1.5 μg/day
  heterotypic chronic stress-induced increase in viscero-motor response to colorectal distension: no significant difference
[1]; intrathecal osmotic pump, bolus 0.67 μg then 1.5 μg/day, listed as k252A
  heterotypic chronic stress-induced increase in viscero-motor response to colorectal distension: suppressed

## astressin
Nerve growth factor; in vitro, with norepinephrine
  norepinephrine-induced expression of nerve growth factor in mucosa/submucosa: blocked this increase; also recorded: blocked this effect
  norepinephrine-induced expression of nerve growth factor in muscularis externa/serosa: had no effect; also recorded: no significant effect

## NC[C@H](O)c1ccc(O)c(O)c1 [norepinephrine]
Nerve growth factor; [8]
  expression of nerve growth factor in mucosa/submucosa: concentration-dependently increased
  expression of nerve growth factor in muscularis externa/serosa: concentration-dependently increased

## C=C(C)[C@]12C[C@@H](C)[C@@]34O[C@](Cc5ccccc5)(O[C@@H]1[C@@H]3C=C(COC(=O)Cc1ccc(O)c(OC)c1)C[C@]1(O)C(=O)C(C)=C[C@@H]41)O2 [resiniferatoxin]
[2]; [9]
  HeCS-induced increase in the number of action potentials at 2× rheobase: significantly blocked
  HeCS-induced reduction in rheobase: significantly blocked
[2]; [10]
  resting membrane potential: no significant effect
  rheobase: no significant effect
[1]; desensitization of afferent nerve endings, 200 μg/kg intraluminal in distal colon one day before HeCS
  induction of visceral hypersensitivity to colorectal distension: blocked the induction of visceral hypersensitivity

## CCN(CC)CC(=O)Nc1c(C)cccc1C [lidocaine]
[3]
  pain-perception to rapid balloon distension: does not affect
  sensory perception to slow distension: blocks

## nerve growth factor: neurotrophin, nerve growth factor (NGF), applied to neurons in vitro at 250 or 2.5 ng/mL
[4]
  resting membrane potential: significant decline
  rheobase: significant decline
[5]
  inflammatory hyperalgesia: mimics inflammatory hyperalgesia
